Experimental data reported in US10308642B2, “Anti-hepatitis B virus agent” (FUJIFILM Toyama Chemical Co., Ltd., priority 2015, dated 2019).
Like-named read-outs stand apart in the source and are kept apart here.

Assays:
[1] = tested on: HBV; experiment: Anti-HBV assay in HepG2.2.15 cells (HBV DNA by real-time PCR, HBsAg by chemiluminescent enzyme immunoassay in culture supernatant); format: cell-based; details: Hepatitis B virus, 144 h, 6 days treatment
Experimental: The anti-HBV activity of compounds 1 to 16 was evaluated as follows by using HepG2.2.15 cells (Proc. Natl. Acad. Sci. USA, 84, 1005-1009, 1987), which are obtained by introducing the HBV genome into hepatoblastoma cell line, HepG2, and persistently produce the virus.
The following was used as a medium: DMEM/F-12,GlutaMAX(manufactured by Invitrogen)+5 μg/mL insulin (manufactured by Wako)+1% penicillin/streptomycin(manufactured by Sigma)+10 mmol/L HEPES(manufactured by Sigma)+50 μmol/L hydrocortisone(manufactured by Sigma)+10% FBS
A mixture of each test compound with dimethyl sulfoxide (DMSO) was added to the medium to obtain a final concentration of DMSO of 1% (v/v), and thus, test solutions containing the test compound in various concentrations were prepared. In addition, a test solution obtained by adding DMSO alone to the medium to obtain a final concentration of 1% (v/v) was prepared as a control without drug.
(1) The HepG2.2.15 cells were suspended in the medium and prepared a cell suspension at 1.5×10^5 cells/mL. The suspension was seeded in a 96-well microtiter plate (100 μL/well) and the plate was incubated in a 5% CO2 incubator at 37° C. for 1 day.
(2) After removing the culture supernatant, the cells were washed twice with PBS(−) (100 μL/well) and then once with the medium (100 μL/well).
(3) Each test solution was added to the plate (100 μL/well), and the plate was incubated in a 5% CO2 incubator at 37° C. for 3 days.
(4) After removing the culture supernatant, the test solution was added to the plate again (100 μL/well) and the plate was incubated in a 5% CO2 incubator at 37° C. for 3 days.
(5) The culture supernatant was collected and treated with a mixture of Buffer AL (manufactured by QIAGEN) and Proteinase K (manufactured by Invitrogen). The amount of HBV DNA in the solution was quantified by real-time PCR. In addition, the amount of HBsAg (hepatitis B surface antigen) in the culture supernatant was quantified by chemiluminescent enzyme immunoassay using a Lumipulse HBsAg-HQ (manufactured by Fujirebio Inc.). The relative viral load (%) of a well with the compound to a well without the compound was calculated. An IC50 of each compound was calculated using the FORECAST function (linear regression method) of Microsoft Excel 2007 by plotting the logarithm of the concentration against the relative viral load as a real number.

[2] = tested on: HBV; experiment: Anti-HBV assay in PXB-cells (fresh human hepatocytes from PXB mouse infected with HBV genotype AeUS); format: cell-based, hepatitis B virus (HBV); details: 10 μmol/L
Experimental: The anti-HBV activity of compound 8 was evaluated as follows by using fresh human hepatocyte (The PXB-cells were produced by PhenixBio Co., Ltd.) derived from a PXB mouse (a chimeric mouse with human hepatocyte).
The following was used as a medium:
500 mL DMEM (manufactured by Sigma)+0.25 μg/mL insulin (manufactured by Wako)+1% penicillin/streptomycin. (manufactured by Sigma)+20 mmol/L HEPES (manufactured by Sigma)+15 μg/mL L-proline (manufactured by Sigma)+50 nmol/L dexamethasone (manufactured by Sigma)+5 ng/mL EGF (manufactured by Peprotech)+0.1 mmol/L ascorbic acid 2-phosphate (manufactured by Wako)+10% FBS+2% DMSO
Compound 8 was further added to the medium to prepare a 10 μmol/L test solution.
(1) The PXB-cells seeded at a 2.1×10^5 cells/cm^2 in a 48-well microliter plate were incubated in a 5% CO2 incubator at 37° C. for 5 days.
(2) HBV derived from PXB mouse serum (genotype AeUS) was added to the medium supplemented with 4% PEG-8000. The PXB cells were infected with this solution at about 10 copies/cell (250 μL/well) and the plate was incubated in a 5% CO2 incubator at 37° C. for 1 day.
(3) After the culture supernatant had been removed, the cells were washed three times with DMEM supplemented with 10% FBS and 1% penicillin/streptomycin. The medium was added to the plate (250 μL/well) and the plate was incubated in a 5% CO2 incubator at 37° C. for 1 day.
(4) After removing the culture supernatant, the cells were washed three times with DMEM supplemented with 10% FBS and 1% penicillin/streptomycin. […]
(11) The collected culture supernatant on day 32 post infection was purified using a QIAamp DNA Blood Mini Kit (manufactured by QIAGEN) and the amount of HVB DNA was quantified by real-time PCR. In addition, the amount of HBsAg (hepatitis B surface antigen) in the culture supernatant was quantified by chemiluminescent enzyme immunoassay using a Lumipulse HBsAg-HQ (manufactured by Fujirebio Inc.). The relative viral load (%) of a well with the compound to a well without the compound was calculated.

[3] = HBV DNA in culture supernatant, real-time PCR, read-out: IC50 (μM) HBV-DNA
[4] = HBsAg in culture supernatant, chemiluminescent enzyme immunoassay, read-out: IC50 (μM) HBsAg
[5] = culture supernatant on day 32 post infection, relative to well without compound

SMILES | IC50 [1, 3] [µM] | IC50 [1, 4] [µM] | relative viral load with respect to the amount of HBV DNA [2, 5] [%] | relative viral load with respect to the amount of HBsAg [2, 5] [%] | anti-HBV activity ([2]; statement in words)
O=C(O)c1cn(-c2ccc(F)cc2)c(-c2ccc(N3CCCC3)cc2)cc1=O [Compound 1] | 0.051 | 1.1 | – | – | –
O=C(O)c1cn(-c2ccc(F)cc2)c(-c2sccc2-c2ccc([N+](=O)[O-])cc2)cc1=O [Compound 2] | 0.16 | 0.79 | – | – | –
CN(C)c1ccc(-c2cc(=O)c(C(=O)O)cn2-c2cccc(F)c2)cc1 [Compound 3] | 0.86 | 5.7 | – | – | –
O=C(O)c1cn(-c2ccc(F)cc2F)c(-c2ccc(N3CCCC3)cc2)cc1=O [Compound 4] | 0.088 | 2.1 | – | – | –
COc1ccc(-n2cc(C(=O)O)c(=O)cc2-c2ccc(N(C)C)cc2)cc1 [Compound 5] | 0.33 | 4.6 | – | – | –
O=C(O)c1cn(-c2ccc(F)cc2)c(-c2cc3ccccc3s2)cc1=O [Compound 6] | 1.1 | 5.8 | – | – | –
CN(C)c1ccc(-c2cc(=O)c(C(=O)O)cn2-c2ccccc2F)cc1 [Compound 7] | 1.1 | 4.6 | – | – | –
CN(C)c1ccc(-c2cc(=O)c(C(=O)O)cn2-c2ccc3c(c2)OCO3)cc1 [Compound 8] | 0.25 | 1.2 | 16 | 29 | excellent anti-HBV activity
O=C(O)c1cn(-c2ccc(F)cc2F)c(-c2cc3ccccc3s2)cc1=O [Compound 9] | 0.23 | 3.6 | – | – | –
CN(C)c1ccc(-c2cc(=O)c(C(=O)O)cn2-c2ccccc2O)cc1 [Compound 10] | 2.1 | 6.9 | – | – | –
Cc1cc(-n2cc(C(=O)O)c(=O)cc2-c2ccc(N(C)C)cc2)ccc1O [Compound 11] | 0.8 | 3.7 | – | – | –
COc1ccc(-n2cc(C(=O)O)c(=O)cc2-c2ccc(N(C)C)cc2)c(F)c1 [Compound 12] | 1.4 | 4.9 | – | – | –
Cc1cc(O)ccc1-n1cc(C(=O)O)c(=O)cc1C1CCC(Br)C(Br)C1 (centres unmarked) [Compound 13] | 0.49 | 1.8 | – | – | –
O=C(O)c1cn(-c2ccc(F)cc2)c(-c2ccc(-c3cccs3)cc2)cc1=O [Compound 14] | 0.91 | 4.2 | – | – | –
CN(C)c1ccc(-c2cc(=O)c(C(=O)O)cn2-c2cc(Cl)c(O)c(Cl)c2)cc1 [Compound 15] | 4.5 | 11 | – | – | –
CNc1ccc(-c2cc(=O)c(C(=O)O)cn2-c2ccc(F)cc2)cc1 [Compound 16] | 7.9 | 35 | – | – | –
